# Counter-ions that a name gives are not always drawn.
# Legend:
# [1] = Powder flowability: mass flow rate through an orifice (Pharmatest PTG-S4); type: physicochemical; settings: orifice inner diameter 15 mm; 100 g powder
# Experimental: The powder flowability was determined with a Pharmatest PTG-S4 automated powder characterization instrument (Pharma Test Apparatebau AG, Hainburg, Germany). This system measures the flow behavior of granules and powders in compliance with the current EP <2.9.36/17> and USP <1174> pharmacopoeia as well as with the international ISO 4324 standards.
# Mass flow rate (g/min) was determined via the method of flow through an orifice. Flow rate is interpreted as the time needed for a specified amount of powder (100 g) to flow through an orifice with different diameters. A free-flowing powder should be able to flow through the whole set of diameters 5, 7, 9, 10, and 15 mm. The plot of flow rate vs. orifice diameter is referred as flow curve. Three parallel measurements were performed to determine the flow rate.
# Flowability of the two mixtures was then tested as described in Example 1.
# [2] = Vitamin B12 content uniformity (RSD from HPLC assays); type: physicochemical; settings: tablets with 549.9 mg calcium phosphate anhydrous and 0.0078 mg vitamin B12
# Experimental: “Uniformity of content” ensures that a consistent dose of an active pharmaceutical ingredient (e.g. of vitamin B12) is maintained in each portion of a composition, even if the composition is subdivided into a large number of very small portions. By way of example, when controlling the quality of e.g. capsules or tablets, uniformity of content is determined. To do so, multiple e.g. capsules or tablets are selected at random and a suitable analytical method is applied to assay the individual content of the active pharmaceutical ingredient in each capsule or tablet. The relative standard deviation (RSD) can then be calculated. The lower the RSD, the better the uniformity of content. An RSD of more than […] is clearly unacceptable. The term “uniformity of vitamin B12 content” is used when multiple solid pharmaceutical dosage forms are selected at random and a suitable analytical method is applied to assay the individual content of vitamin B12 in each solid pharmaceutical dosage form.
# Tablets were compressed with a Korsch XL 100 rotary tableting machine (Korsch A G, Berlin, Germany) using an oblong punch of 22×9 mm and compression force of 20 kN.
# Vitamin B12 content uniformity was then evaluated via the standard deviation RSD (%) calculated from 10 individual assay determinations (HPLC analysis conducted by Eurofins®, Germany).
"Flow rate, measured with orifice having the indicated inner diameter [1]",vitamin B12 content uniformity rating [2],Molecule
very low,,CN(C)C(=N)N=C(N)N [metformin HCl]
,extremely poor,cyanocobalamin [vitamin B12 crystals]
